row,Structure (SMILES),melting point [°C]
1,CCCCNC(=O)NCCCCCCCCCCCCN,97
2,Cc1cc2[nH]ncc2cc1NC1=NCCS1,218 to 221
3,COc1cc(OC)nc(Oc2cccc(Cl)c2NS(C)(=O)=O)n1,147 to 148
4,COc1ccc(CC#N)cc1S(=O)(=O)NC(C)(C)C,146 to 147
5,COC(=O)CC1CCN(C(=O)c2cnc(-c3ccc(C(=N)NC(=O)OC)cc3)nc2OC)CC1,193 to 195
6,C#Cc1cc(Nc2ncnc3cnc(C)cc23)ccc1F,225
7,Cc1nc2cc3c(cc2n1C)C(=O)OC3=O,310 to 315
8,C=CCc1c(O)ccc2oc(C(=O)c3ccc(F)cc3)c(C)c12,164 to 166
9,CN1CC(c2ccc(Cl)cc2)=NNC1=O,195 to 197
10,CC1(C)CCC(=C[C@H]2[C@H](C(=O)O)C2(C)C)CC1 (relative stereo),96
11,Cn1nnnc1-c1cn(C)c2cc(N3CCCCC3)ccc2c1=O,180 to 183
12,CC(C)C1(C)Cc2cc(OCC#N)c(Cl)c(Cl)c2C1=O (stereo not given),133
13,COc1cc(-c2nc(NC(=O)c3c(C)c4cc(C)ccc4n3CC(=O)O)sc2CCC2CCCCC2)c(OC)cc1C,150 to 152
14,CC1CC(=O)NN=C1c1ccc2c(c1)N=CS2=O (stereo not given),317 to 319
15,O=C(NCC(F)(F)F)c1ccc(C(F)(F)F)cc1,117
16,Cc1noc(-c2c(C)ncn2C)n1,95
17,Oc1ccc(-c2csc(S)n2)cc1O,236
18,Cc1ccc(O)c(Cn2c(NCCCN3CCOCC3)nc3ccc(Cc4c(C)cc(NCCO)cc4C)cc32)n1,162
19,COC1CCC(S(=O)(=O)c2ccccc2)O1 (stereo not given),68
20,O=C(O)[C@@H]1C[C@@H](O)CN1CCO,202 to 204
21,Clc1c(Br)cncc1Br,101 to 103
22,COc1cc2ncc(C#N)c(Nc3ccc(C)c(Cl)c3)c2cc1OC,> 250
23,O=C(NNc1ccc(Br)cc1)c1c(F)cccc1F,172
24,Nc1sc2c(c1C(=O)c1ccc(Cl)cc1)CCC(O)C2 (stereo not given),176 to 177
25,CN(C(=O)CCCOc1ccc([N+](=O)[O-])c(C=O)c1)C1CCCCC1,98 to 100
26,C=C1CCCN(Cc2ccc(OC)cc2)C1=O,145 to 155
27,Brc1ccc(C2=CCN(CCSCc3c[nH]c4ccccc34)CC2)cc1,166 to 167

row,Structure (SMILES),melting point [°C]
1,Nc1cc(NC(=O)c2ccc(F)c(F)c2)ccc1F,135 to 142
2,O=C(Nc1ccc(Oc2cc(Cl)ncn2)cc1)Nc1ccc(Cl)c(C(F)(F)F)c1,180 to 181
3,Cc1cc(-c2cc3c(cc2F)c(=O)c(C(=O)O)cn3C2CC2)cc(CO)n1,270 to 272
4,CC1(C(=O)Nc2ccc(-n3nc(C(F)(F)F)cc3C(F)(F)F)cc2)CC1(Cl)Cl (stereo not given),143 to 145
5,O=C(O)CC1C2=C(CCCC2)C(=O)N1c1ccc(Cl)cc1 (stereo not given),177 to 178
6,O=C=Nc1ccc(N2CCOCC2)cc1,221 to 225
7,N#Cc1c[nH]c(C(F)(F)F)c1-c1ccc(Cl)cc1,114 to 115
8,COc1cc(C=O)ccc1OCCBr,61 to 64
9,COC(=O)CN(CCN(CCN(CC(=O)OC)S(=O)(=O)c1ccc(C)cc1)S(=O)(=O)c1ccc(C)cc1)S(=O)(=O)c1ccc(C)cc1,141 to 142
10,COc1ccc(-c2cc3cc(F)c(F)cc3[nH]2)cc1NS(=O)(=O)c1cccc([N+](=O)[O-])c1,228 to 230
11,N#Cc1c(C(F)(F)F)nn(-c2c(Cl)cc(C(F)(F)F)cc2Cl)c1C(F)(F)F,88 to 92
12,Cc1oc2nc3c(c(NC(=O)C(C)C)c2c1C)CCCC3,245 to 246
13,Cc1ccccc1C=CC(=O)c1c(C)n(CCN2CCOCC2)c2ccccc12,131 to 135
14,CCOC(=O)N1Cc2ccnnc2C(NN=C(C)C)C1 (stereo not given),171 to 174
15,CC1(C)[C@H](C(=O)OCc2cnc(Cc3ccccc3)s2)[C@@H]1C=C(Br)Br,66
16,COc1cc2c(cc1OC)Nc1nccn1C2,215 to 217
17,Cc1cc(C)c(Nc2nc(C)ccc2S(=O)(=O)c2ccc(OCc3csc(C)n3)cc2)c(C)c1,200 to 201
18,CC(=O)c1cc2c(s1)S(=O)(=O)CCc1cc(=O)n(-c3ccc(Cl)cc3)nc1-2,272 to 273
19,Cc1nc2n(c(=O)c1CCN1CCN(c3noc4cc(F)ccc34)CC1)CCS2,193
20,OC1CC(O)C2CC1NN2 (stereo not given),203 to 205
21,Cn1cc(-c2ccc(F)cc2)nc1SCCSc1nc(-c2ccc(F)cc2)c(-c2ccc(F)cc2)[nH]1,202 to 205
22,Cn1nnc2c(N3CCOCC3)nc(Cl)nc21,168
23,CC(C)CCCC(C)C1C(O)CC2C3=CC=C4C(C)(C)C(O)CCC4(C)C3CCC21C (stereo not given),171 to 173
24,CCNc1cc(Oc2cccc(C(F)(F)F)c2)nc(C(=O)NN=CC(F)(F)C(F)(F)F)c1,101 to 102
25,CCOC(=O)C1=C(C)NC(C)=C(C(=O)OC(C)C)C1c1cccc([N+](=O)[O-])c1 (stereo not given),148
26,CC(C)COC(=O)N1CCC(c2ccc3oc(-c4ccc(S(C)(=O)=O)cc4F)nc3c2)CC1,169 to 173

# Second part, the compound after the results:
row,melting point [°C],Structure (SMILES)
1,252 to 254,OCc1ccccc1-c1nc(-c2ccc(Cl)cc2)n[nH]1
2,135 to 138,O=C1c2ccccc2C(=O)N1CCc1ccc(CCC2CCCCC2)cc1
3,255 to 260,Nc1c(-c2ccc(-c3ccccc3F)cc2)nc2ccc(C(F)(F)F)cc2c1C(=O)O
4,116 to 118,O=C(O)CCC(CCCCNS(=O)(=O)c1ccc(Cl)cc1)CCCc1cccnc1 (stereo not given)
5,54 to 54.5,COC(=O)CCCc1ccc(C(=O)Cc2ccccc2)cc1
6,56 to 58,CCOC(=O)CCCCc1cn(-c2cccnc2)c2ccccc12
7,122 to 125,CCCc1c(OCC(O)CS(=O)(=O)c2ccc(CC(=O)OC)c(Cl)c2Cl)ccc(C(C)=O)c1O (stereo not given)
8,143,CCCOc1cc(Cn2[nH]c(N)cc2=O)ccc1Cl
9,175 to 177,COc1ccc(CN2C(=O)CN(Cc3ccc(C(=O)O)cc3)S2(=O)=O)c(OC)c1
10,149 to 150,CC(C)(C#N)c1cc(Cn2ccnc2)cc(C(N)=O)c1
11,206 to 208,CCN(Cc1cc(Br)ccc1OCc1ccccc1)c1ccc(-c2nnn[nH]2)cc1
12,161 to 163,CC1=C(N)C(C)C2CC(C)(CC3=CCN(c4ccc(-n5ccnc5)cc4)CC3)OC2=C1C (stereo not given)
13,78 to 79,O=C1C(CCO)Oc2cc(F)ccc2N1Cc1cccc(F)c1 (stereo not given)
14,86 to 93,N=C(Cc1ccc(F)cc1)Nc1ncccc1OCc1ccccc1
15,202 to 204,COCOc1ccc(-c2ncc3ncc(N4CCCCC4=O)cc3n2)cc1
16,131 to 132,CCCCOC(=O)c1c(CSc2nccn2C)nc2cc(OC)c(OC)cc2c1-c1ccc(OC)c(OC)c1
17,210 to 211,CCCOC(=O)Nc1cnc(OCCC)c(-c2nc3c(CCC)nn(C)c3c(=O)[nH]2)c1
18,196 to 197,Cc1ccccc1-c1ccc(C(=O)N2Cc3ccc(C(=O)NCc4ccc(Cl)cc4)n3Cc3ccccc32)cc1C
19,116,CC1CCCN(C(=O)c2nc(-c3ccccc3)nc3ccccc23)C1 (stereo not given)
20,212 to 213,CC(C)(O)C1(c2onc(-c3ccc(O)cc3)c2-c2ccccc2)CC1
21,159 to 160,COCCOc1ccc(/C=C/C(=O)O)c(Oc2ncc(NC(=O)OC(C)(C)C)cc2C)c1
22,205,CCCC(=O)NC(=O)C(c1ccccc1)c1ccccc1
23,105 to 106,O=C(c1cnc(Cc2ccc(Cl)cc2)[nH]1)N1CCC(c2ccccc2)(c2ccccc2)CC1
24,91 to 92,CCCCN(C#N)C(=O)C(C)Oc1ccc(Oc2nc3ccc(Cl)cc3o2)cc1 (stereo not given)

row,melting point [°C],Structure (SMILES)
1,149 to 152,CCOC(=O)c1cn(-c2ncns2)c2cc(F)c(F)cc2c1=O
2,110 to 112,CN(C)c1ccc(C(=O)CCCN2CCC(=C(c3ccccc3)c3ccccc3)CC2)cc1
3,120 to 122,CCOC(=O)c1ccc(N2CCC(NCC(O)COc3ccc(N)nc3)CC2)nc1 (stereo not given)
4,163 to 165,N=C(Nc1ccccc1)Nc1ncccc1OCc1c(Cl)cccc1Cl
5,237 to 240,CCN(CC)C(=O)c1cc(-c2ccccc2)c(=O)[nH]c1-c1c(Cl)cccc1C#N
6,146 to 149,O=S1(=O)NCCNc2ccc(Oc3ccccc3)cc21
7,225 to 226,O=C(Nc1ccccc1)c1c[nH]c2c1C(=O)CCC2
8,165 to 170,COc1cc(Nc2nc3cccc(-c4cccnc4)c3o2)cc(OC)c1OC
9,232 to 233,O=C1Nc2ccccc2C12COc1cc3c(cc12)N(Cc1ccccn1)CC=N3 (stereo not given)
10,152 to 153,CCOC(=O)COc1ccc(C2=NNC(=O)NC2C)cc1 (stereo not given)
11,195 to 197,Cc1c(-c2ccccc2)[nH]c(N)c1C(N)=O
12,176 to 178,Cc1c(CCN(C)C(=O)OC(C)(C)C)c2cc(S(=O)(=O)c3cccc4ccccc34)ccc2n1C
13,110,CC(C)C[C@H](NC(=O)OCc1ccccc1)C(=O)N[C@@H](Cc1ccccc1Cl)C(=O)CSCc1ccco1
14,96 to 99,CCCCCCCCCCCCCCOc1cccc(C(=O)N(CC(=O)O)CC(=O)O)c1
15,37,CCOc1ccc(CCc2ccc(OC(F)F)cc2)cc1
16,100 to 101,CN(C)C=CC(=O)c1ccc2ccccc2c1
17,248,CCn1c(=O)c2c(nc(/C=C/c3ccc(O)c(O)c3)n2C)n(CC)c1=O
18,71 to 74,CCCNC(=O)c1ccc(C=O)cc1
19,119 to 121,Cc1cccc(-c2n[nH]cc2-c2ccc(F)c(-c3ccc(S(N)(=O)=O)c(F)c3)c2)n1
20,170 to 171,CCOc1ccc(-c2nc(-c3cccc(N4CCCC4C(=O)O)n3)cs2)cc1OCC (stereo not given)
21,111 to 119,OCCOCCNCc1ccc(-c2cc3ncnc(Nc4ccc5[nH]ccc5c4)c3s2)cc1
22,52 to 54,CCOC(=O)c1sc(Oc2ccccc2)nc1C(F)(F)F
23,88,Cc1cc(-n2ccnc2)c2cccc(OCc3c(Cl)ccc(S(=O)(=O)N4CCC[C@H]4C(=O)NCCN(C)C)c3Cl)c2n1
